# Measured values published in patent publication US6806267B1, “Apoptosis-inducing compounds” (priority 1998, dated 2004).
# Like-named read-outs stand apart in the source and are kept apart here.
# Key:
# [1] = tested on: CML cell lines K562, KYO.1 and Lama 84; assay: Apoptosis in CML cell lines, cytospin and staining; format: cell-based, human; settings: 24 hours (10 μM elsewhere in the source)
# [2] = tested on: K562 cells; assay: Apoptosis in K562 cells, cytospin and staining; format: cell-based, human; settings: K562, 16 hours
# [3] = tested on: Jurkat cells; format: cell-based, human; settings: 1 hour, then etoposide 16 hours
# [4] = tested on: MCF-7 cells; assay: Apoptosis in MCF-7 cells; format: cell-based, human
# Description: MCF-7 cells were maintained in minimum essential medium supplemented with non-essential amino acids (1% v/v), glutamine (1 mM), FCS (10%) and sub-cultured by the protocol described for Hela cells.
# In all experiments performed, cells were seeded at a density of 3×10^5 cells/ml into 24-well plates (1 ml well) and immediately treated with the indicated compound. All drugs were diluted from freshly prepared ethanol stock solutions. The final concentration of ethanol in the wells was always 1% (vol/vol); a concentration which by itself had no effect on the cells tested. Following exposure to the appropriate drug, the cells (100 μL) were cytospun onto glass slides pre-coated with poly-L-lysine using a Cytospin 3™ cytocentrifuige (Shandon). They were then stained using the Rapi-Diff kit (eosinm ethylene blue) under the conditions described by the manufacturer. The percent apoptosis and necrosis was determined by counting approximately 300 cells under a light microscope with the aid of a graticule inserted into the eyepiece. At least 3 fields of view per slide, with an average of approximately 100 cells per field, were counted.
# [5] = tested on: caspase 3-like proteases; format: cell-based, human; settings: HL-60 cells
# Description: (§1) Cells (5×10^6 cells) were harvested by centrifugation, washing in ice-cold phosphate-buffered saline and the pellets resuspended in 200 μl of harvesting buffer (20 mM Hepes, pH 7.5, 10% (w/v) sucrose, 0.1% (w/v) CHAPS, 2 mM dithiotreitol, 0.1% (v/v) Nonidet NP40, 1 mM sodium EDTA and 1 mM phenylmethylsulfonyl fluoride) supplemented with protease inhibitors (1 μg/ml pepstatin A and 1 μg/ml leupeptin). Following incubation on ice for 10 min, samples were passed up and down 10 times through a 21 gauge needle. Following a further incubation on ice for 10 min the homogenates were centrifuged at 20,000 g for 20 min and the resulting supernatants used to measure caspase 3 activity. This enzyme activity was determined by a fluorometric assay using the substrate Ac-DEVD-AMC, which is cleaved by caspase 3 to release the fluorescent leaving group, amino-4-methyl coumarin (AMC). Enzyme extracts (50 μg) were incubated with 100 mM Hepes, pH 7.5, containing 10% (w/v) sucrose, 0.1% (w/v) CHAPS, 10 mM dithiotreitol and 20 μM substrate in a total reaction volume of 3 ml. Following incubation for 60 min at 25° C., fluorescence was monitored continuously using a spectrofluorimeter (excitation wavelength 380 nm, emission wavelength 460 nm). The amount of AMC released was determined by comparison with a standard curve generated with known amounts of AMC.
# [6] = tested on: caspase 3; format: cell-based, human
# Description: as §1
# [7] = tested on: Cytochrome C; assay: Cytochrome C Western blot, HL-60 cytosol; format: cell-based, human; settings: HL-60 cells
# Description: Cells (15×10^6) were harvested by centrifugation at 1800 g for 10 min at 4° C. After being washed once with ice-cold phosphate-buffered saline, the cell pellet was suspended in 100 μl of ice-cold buffer A (20 mM Hepes, pH 7.5, 10 mM KCl, 1.5 mM MgCl2, 1 mM sodium EDTA, 1 mM sodium EGTA, 1 mM dithiotreitol and 0.1 mM phenylmethylsulfonyl fluoride) supplemented with protease inhibitors (5 μg/ml pepstatin A, 10 μg/ml leupeptin and 2 μg/ml of aprotinin). The cells were left to sit on ice for 15 min and then centrifuged at 20,000 g for 20 min. The resulting supernatant was stored at −70° C. until measurement of cytochrome C. Protein determination was measured by using the Bradford assay. Equal amounts of protein were resolved by SDS-polyacrylamide gel electrophoresis in 15% gels and transferred onto nitro-cellulose. Membranes were blocked with phosphate-buffered saline/5% (w/v) dry milk and probed with anti-cytochrome C antibody. Blots were washed, incubated with goat anti-mouse IgG peroxidase conjugate and developed by ECL according to the manufacturer's recommendations.
# [8] = tested on: JNK1 and JNK2; assay: Western blot of JNK activation in HL-60 cells; format: cell-based, human
# [9] = tested on: JNK1 and JNK2; format: cell-based, human; settings: K562 cells
# [10] = tested on: p42-44; assay: Western blot of p42-44 activation in K562 cells; format: cell-based, human
# [11] = tested on: BCR-abl; assay: Western blot analysis of BCR-abl in CML cells; format: cell-based, human
# [12] = tested on: tyrosine phosphorylated proteins; assay: Protein tyrosine phosphorylation Western blot, Jurkat cells; format: cell-based, human
# Description: Jurkat and CML cells (5×10^6) were harvested by centrifuigation at 1800 g for 10 min at 4° C. After being washed once with ice-cold phosphate-buffered saline, the cell pellet was suspended in 100 μl of ice-cold lysis buffer (50 mM Tris-HCl, pH 8.0, 150 mM NaCl, 0.1%.SDS, 1% Triton X-100, 1 mM sodium 1 mM phenylmethylsulfonyl, 10 ng/ml leupeptin and 10 ng/ml of aprotinin). The cells were left to sit on ice for 10 min and then centrifuged at 20,000 g for 20 min. The resulting supernatant was stored at −70° C. until measurement of tyrosine phosphorylation. Protein determination was measured by using the Bradford assay. Equal amounts of protein were resolved by SDS-polyacrylamide gel electrophoresis in 15% gels and transferred onto polyvinylidene difluoride (PVDF) membranes. Membranes were blocked with Tris-buffered saline with Tween 20 (10 mM Tris-HCl, pH 8.0, 150 mM NaCl, 0.05% Tween 20) containing 1% w/v BSA and probed with anti-phosphotyrosine antibody. Blots were washed, incubated with goat anti-mouse IgG peroxidase conjugate and developed by ECL according to the manufacturer's recommendations.
# [13] = tested on: HL-60 cells; assay: Apoptosis in HL-60 cells, cytospin and Rapi-Diff staining
# [14] = HL-60 cells and the 3 CML cell lines
structure (smiles),measurement,setting,value
"CN(C)C(=O)OC1=C(c2cccc3ccccc23)Oc2ccccc2-n2cccc21 [PBOX-6, 7-((Dimethylcarbamoyl)oxy)-6-(1-naphthyl)pyrrolo[2,1-d][1,5]benzoxazepine]",cells that had undergone apoptosis,[1],approximately 50%
same,cells that had undergone apoptosis,[2],40-50%
same,effect of pretreatment on etoposide induced apoptosis,[3],does not protect against etoposide induced apoptosis
same,concentration at which morphological features of apoptosis were first observed,[4],5 μM
same,time at which caspase 3-like protease activity became evident,[5],6 h
same,activation of caspase 3-like proteases,[5]; DEVD-AMC substrate,dose-dependent activation of caspase 3-like proteases
same,caspase 3 activation,"[6]; K562 and Lama 84, 16 hours",activated
same,caspase 3 activation,[6]; KYO.1 cells,not detected
same,Cytochrome C in the cytosol,[7],accumulation of Cytochrome C in the cytosol
same,activation of JNK,[8],transient activation of 2 JNK isoforms
same,time of peak JNK activation,[8],1 h
same,time at which JNK activation first becomes visible,[9],15 min
same,time of peak JNK activation,[9],30 to 45 min
same,activation of p42-44,[10],not activated
same,BCR-abl expression,[11]; K562 and KYO.1 cells,"downregulation of BCR-abl was detected, but not until 24 hours"
same,downregulation of BCR-abl,"[11]; Lama 84 cells, up to 72 hours",not detected
same,protein tyrosine phosphorylation,[12],time and dose-dependent decrease in protein tyrosine phosphorylation
same,apoptosis below a final concentration of 5 μM,[13]; HL-60 cells,negligible
same,time at which morphological signs of apoptosis became apparent,[13]; HL-60 cells,6 hours
same,concentration at which apoptosis was first observed,[13]; [14],5 µM
same,time after which apoptosis was first observed,[13]; [14],4 h
same,degree of necrosis,"[13]; HL-60 cells, 10 μM, 16 hours",negligible
same,cytotoxicity at 10 µM,"[13]; Homo sapiens, HL-60, 16 h, read-out: % Apoptosis",38.6 ± 4.6%
